Like-named read-outs stand apart in the source and are kept apart here.
Legend:
[1] = test system: Human bone marrow cells (BFU-E); experiment: Human bone marrow toxicity, BFU-E clonogenic assay; type: cell-based; settings: Bone marrow cell; human bone marrow colony formation, 14 to 18 days
From the text: Human bone marrow cells were collected from normal healthy volunteers and the mononuclear population was separated by Ficoll-Hypaque gradient centrifugation as described previously by Sommadossi J-P, Carlisle R. “Toxicity of 3′-azido-3′-deoxythymidine and 9-(1,3-dihydroxy-2-propoxymethyl)guanine for normal human hematopoietic progenitor cells in vitro” Antimicrobial Agents and Chemotherapy 1987; 31:452-454; and Sommadossi J-P, Schinazi R F, Chu C K, Xie M-Y. “Comparison of cytotoxicity of the (−)- and (+)-enantiomer of 2′,3′-dideoxy-3′-thiacytidine in normal human bone marrow progenitor cells” Biochemical Pharmacology 1992; 44:1921-1925. The culture assays for CFU-GM and BFU-E were performed using a bilayer soft agar or methylcellulose method. Drugs were diluted in tissue culture medium and filtered. After 14 to 18 days at 37° C. in a humidified atmosphere of 5% CO2 in air, colonies of greater than 50 cells were counted using an inverted microscope. The results in Table 4 are presented as the percent inhibition of colony formation in the presence of drug compared to solvent control cultures.

[2] = Cytotoxicity assay (sulforhodamine B, CC50), Human Hepatoma; type: cell-based; settings: human, Huh7 cells (human hepatoma); Table 13; Huh7 cells
Experimental: Cells were seeded at a rate of between 5×10^3 and 5×10^4/well into 96-well plates in growth medium overnight at 37° C. in a humidified CO2 (5%) atmosphere. New growth medium containing serial dilutions of the drugs was then added. After incubation for 4 days, cultures were fixed in 50% TCA and stained with sulforhodamineB. The optical density was read at 550 nm. The cytotoxic concentration was expressed as the concentration required to reduce the cell number by 50% (CC50).

[3] = test system: BVDV (strain NADL); experiment: Cell Protection Assay (CPA); type: cell-based, Bovine Viral Diarrhea virus; settings: Bovine viral diarrhea virus isolates and strains
Experimental: The assay was performed essentially as described by Baginski, S. G.; Pevear, D. C.; Seipel, M.; Sun, S. C. C.; Benetatos, C. A.; Chunduru, S. K.; Rice, C. M. and M. S. Collett “Mechanism of action of a pestivirus antiviral compound” PNAS USA 2000, 97(14), 7981-7986. MDBK cells (ATCC) were seeded onto 96-well culture plates (4,000 cells per well) 24 hours before use. After infection with BVDV (strain NADL, ATCC) at a multiplicity of infection (MOI) of 0.02 plaque forming units (PFU) per cell, serial dilutions of test compounds were added to both infected and uninfected cells in a final concentration of 0.5% DMSO in growth medium. Each dilution was tested in quadruplicate. Cell densities and virus inocula were adjusted to ensure continuous cell growth throughout the experiment and to achieve more than 90% virus-induced cell destruction in the untreated controls after four days post-infection. After four days, plates were fixed with 50% TCA and stained with sulforhodamine B. The optical density of the wells was read in a microplate reader at 550 nm. The 50% effective concentration (EC50) values were defined as the compound concentration that achieved 50% reduction of cytopathic effect of the virus. FIGS. 4 and 5 provide a graphical illustration of the methodology used to arrive at the 50% effective concentration (EC50) values for β-D-2′-CH3-riboG and ribavirin. FIG. 6 compares the results of the CPA for β-D-2′-CH3-riboG, β-D-2′-CH3-riboC, riboU, β-D-2′-CH3-riboA and ribavirin

[4] = test system: Bovine Viral Diarrhea virus (BVDV); experiment: microbe, parasite or virus in culture; type: cell-based; settings: Bovine viral diarrhea virus isolates and strains, read-out: BVDV EC50
[5] = test system: YFV-17D; experiment: microbe, parasite or virus in culture; type: cell-based, Yellow fever virus vaccine strain 17D; settings: Yellow fever virus, read-out: YFV EC50

Compound: CC1(O)[C@@H](O)[C@@H](CO)O[C@H]1n1cnc2c(=O)[nH]c(N)nc21 (stereo partly drawn) [β-D-2′-CH3-riboG]
- IC50 [1]: > 100 µM
- EC50 at 4 days [2]: > 250 µM
- EC50 ([3]; 96 h, MDBK cells infected with BVDV, 50% reduction of cytopathic effect, four days, read-out: EC50): 4 µM
- EC50 ([3]; Table 13, BVDV, read-out: Cell Protection (EC50)): 4 µM
- EC50 [4]: 2 µM
- EC50 [5]: 1.2 µM

From patent US20180235993A1 (priority 2000, published 2018)
